Positions of bridges follow the written chain, without caps; N, C: chain ends. Non-standard residues stand in square brackets, D forms with d. No end group written: not given here.
Columns and labels:
[1] = system: bladder cells from a dog with chronic cystitis; assay: Whole cell binding assay of Example 2, chronic cystitis bladder cells; design: species or system canine; conditions: PLZ4 beads
Method: This experiment was repeated 3 times for cell lines. […] 5637 human bladder cancer cell line; b. […] The average diameter of the beads is 90 μm. […] This experiment was repeated for 3 times. (200×)
To determine the binding of PLZ4 to canine TCC cell lines, whole cell binding assay was performed. PLZ4 was synthesized on TentaGel S NH2 resin beads (Rapp Polymere Gmbh, Germany) (Pegram, et al., J Clin Oncol (1998) 16:2659-2671), and incubated with single suspensions of five different canine carcinoma cell lines including K9TCC-PU, K9TCC-PU-AxA, K9TCC-PU-In, K9TCC-PU-AxC, and K9TCC-PU-Nk (kindly provided by Deborah Knapp at Purdue University, West Lafayette, Ind., USA) at 10^6 cells/ml. The negative control was normal urothelial cells obtained from dogs that were euthanized due to non-bladder-related disorders. Human bladder cancer cell line, 5637 were served as the positive control. If PLZ4 bound to cells in suspension, then the bead surface was covered with cells. Over 95% of the bead surface was covered with 5637 and K9TCC cells (FIG. 7A-a and b, respectively).

[2] = system: bladder TCC cell lines 5637, T24 and TCCSUP; assay: Whole cell bead binding assay, bladder TCC cell lines; design: species or system human; conditions: peptide on OBOC beads; 5637, T24, TCCSUP
Method: The beads were washed extensively with double-distilled water and phosphate-buffered saline (PBS) before screening. Bladder cancer cells and normal urothelial cells were detached from culture dishes with trypsin/EDTA or a Detach kit (PromoCell, Heidelberg, Germany), washed with their corresponding culture medium, resuspended at 10^6 cells/ml and incubated with OBOC beads in Petri dishes in a humidified CO2 incubator at 37° C. with shaking (60 rpm). Beads bound by cells appeared as rosettes with a central bead covered by a layer(s) of cells under a microscope. The positive beads were picked with a pipette under inverted microscope, treated with Quanidine HCl (8M, 20 min) to remove cells and proteins on beads surface, and underwent a second round of incubation with the same cells to confirm the binding. Only those beads with cell bindings at both rounds were sent for the amino acid sequencing as previously described (Peng, et al., Nat Chem Biol, (2006) 2: 381-389).
Whole cell bead binding assay was used to screen libraries for peptides that bind bladder cancer cell cultures (FIG. 1). Approximately 150,000 library beads (peptides) were screened against each of 4 bladder cancer cell lines (three transitional cell carcinoma (TCC) lines: T24, TCCSUP and 5637, and one squamous cell line SCaBER). […]

whole blood cells = assay: Whole cell bead binding assay, whole blood cells; design: species or system human; conditions: peptide on beads
[3] = system: peripheral blood mononuclear cells (PBMC); assay: Whole cell bead binding assay, PBMC; design: species or system human; conditions: peptide on beads
Method: (§1) Four bladder cancer cell lines including 5637 (HTB-9), SCaBER, TCCSUP (HTB-5), and T24 (HTB-4) were purchased from the American Type Culture Collection (Manassas, Va.). The isolation, characterization and maintenance of normal urothelial cells was previously described in detail (Bagai, et al., J Biol Chem, (2002) 277: 23828-23837). Normal peripheral blood mononuclear cells were prepared by using the Ficoll-Paque gradient method from peripheral blood of healthy donors. Bladder cancer tissue obtained from cystectomy was cut into pieces, digested with collagenase at 37° C. for 1-2 hours per the manufacturer's protocol, and filtered through a 40-μm strainer to make single cell suspension. Tumor cells were then isolated with Ficoll-Paque gradient method (800 g, 30 min at 4° C.). Informed consent was obtained from each patient or healthy donor before specimens were collected.
The beads were washed extensively with double-distilled water and phosphate-buffered saline (PBS) before screening. Bladder cancer cells and normal urothelial cells were detached from culture dishes with trypsin/EDTA or a Detach kit (PromoCell, Heidelberg, Germany), washed with their corresponding culture medium, resuspended at 10^6 cells/ml and incubated with OBOC beads in Petri dishes in a humidified CO2 incubator at 37° C. with shaking (60 rpm). […]

[4] = system: primary bladder cancer cells from patients; assay: Whole cell bead binding assay, primary bladder cancer cells from patients; design: species or system human; conditions: beads coated with PLZ4; fresh bladder cancer specimens
Method: as §1
The beads were washed extensively with double-distilled water and phosphate-buffered saline (PBS) before screening. […]
The cell surface molecules on established cell lines in culture may not be the same as those molecules on primary bladder cancer cells. It was assessed if PLZ4 could bind to bladder cancer cells from patients. […]

cQDGRMGFc ([dC]QDGRMGF[dC]; disulfide 1-9 (inferred)) [PLZ4, bladder cancer-specific ligand peptide]
binding to bladder cells from a dog with chronic cystitis [1]: no cell binding | binding to bladder TCC cell lines [2]: bound to all three bladder TCC cell lines | binding to whole blood cells (whole blood cells): did not bind | binding to peripheral blood mononuclear cells [3]: did not bind | binding to primary bladder cancer cells from patients [4]: could bind to cells from all 5 fresh bladder cancer specimens

— patent publication US10335365B2, “Bladder cancer specific ligand peptides” (The Regents of the University of California, priority 2009, dated 2019)
